Ends that are not written are not given here.
These molecules were tested on Antioxidant Response Element (ARE), Nrf2 antioxidant pathway (assay: Antioxidant Response Element (ARE) luciferase reporter assay). Details: 0 μM to 50 μM with respect to peptide; 24 hours; FIGS. 38A, 38B.
Assay type: cell-based
Experimental: The Antioxidant Response Element (ARE) Luciferase Reporter HepG2 Cell line was used to probe Nrf2 antioxidant pathway activation. ARE-HepG2 cells were cultured in growth media (BPS bioscience) according to manufacturer's recommendations. […] PLPs and peptides were tested at concentrations ranging from 0 μM to 50 μM with respect to peptide along with controls (untreated and tBHQ positive control at 100 μM) in triplicate. Cells were incubated for 24 hours post-treatment. ONE-step luciferase assay reagent was added at 100 μL/well, followed by rocking at room temperature for 15 min. Luminescence was assessed using a Biotek SynergyNeo2 plate reader. Background luminescence of cell free controls wells was subtracted from test wells. ARE activation was reported as luminescence relative to the average of the untreated controls wells.

Molecule	ARE activation
CC(C)C[C@H](NC(=O)[C@H](Cc1ccccc1)NC(=O)[C@H](CCC(=O)O)NC(=O)CNC(=O)[C@@H](NC(=O)[C@H](CCC(=O)O)NC(=O)[C@@H]1CCCN1C(=O)[C@H](CC(=O)O)NC(=O)[C@@H](N)CC(C)C)[C@@H](C)O)C(=O)N[C@@H](CCCNC(=N)N)C(=O)N[C@@H](CCCNC(=N)N)C(=O)N[C@@H](CCCNC(=N)N)C(=O)N[C@@H](CCCNC(=N)N)C(N)=O [SEQ ID NO: 72]	did not activate ARE
Full Scramble PLP: full scramble polynorbornene dicarboxyimide-based brush polymer comprising SEQ ID NO: 143 (DERLERPLTRGFR) peptide monomer, Example 13 (also: part of polynorbornene dicarboxyimide-based brush polymer) [reference compound]	did not activate ARE
ScrambleR PLP: scrambleRRRR polynorbornene dicarboxyimide-based brush polymer comprising SEQ ID NO: 146 (DELEPLTGFRRRR) peptide monomer, Example 14 (also: part of polynorbornene dicarboxyimide-based brush polymer) [reference compound]	did not activate ARE
